Test results from patent publication US20080058324A1, “Alpha-Keto Carbonyl Calpain Inhibitors” (SANTHERA PHARMACEUTICALS (SCHWEIZ) AG, priority 2004, published 2008).

Columns and labels:
[1] = tested on: utrophin expression in human DMD myotubes; test: Utrophin Expression Assay in Human Myotubes; type: cell-based; conditions: 50 nM test compound
Procedure: Utrophin induction was determined by a method which was similar to a method of I. Courdier-Fruh et al., Neuromuscular Disord., 2002, 12, S95-S104.
Primary human muscle cell cultures were prepared from muscle biopsies taken during orthopedic surgery from Duchenne patients (provided by the Association Francaise contre les Myopathies). Cultures were prepared and maintained according to standard protocols. Induction of utrophin expression in human DMD myotubes was assayed at 50 nM or 500 nM of test compound added in differentiation medium. Normalized utrophin protein levels are determined after 5-6 d of incubation by cell-based ELISA with a mouse monoclonal antibody to the aminoterminal portion of utrophin (NCL-DRP2, Novocastra Laboratories). For calibration, the cell density and differentiation was determined by absorbance measurements of the total dehydrogenase enzyme activity in each well using the colorimetric CellTiter 96®AQ One Solution Reagent Proliferation Assay (Promega) according to the manufacturer's recommendation. […] Utrophin protein levels were determined immunologically with utrophin-specific primary antibody and with anappropriate peroxidase-coupled secondary antibody (Jackson ImmunoResearch Laboratories) using QuantaBlu™ Fluorogenic Peroxidase Substrate Kit (Pierce) for detection. […] The primary readout of this signal is presented in arbitrary units. […]

20S Proteasome = molecular target: T1, 20S Proteasome (Oryctolagus cuniculus, UniProt G1T4Q9); test: 20S Proteasome Assay; type: biochemical, Rabbit; conditions: read-out: 20S Prot IC50
T1 sequence (G1T4Q9 60-263): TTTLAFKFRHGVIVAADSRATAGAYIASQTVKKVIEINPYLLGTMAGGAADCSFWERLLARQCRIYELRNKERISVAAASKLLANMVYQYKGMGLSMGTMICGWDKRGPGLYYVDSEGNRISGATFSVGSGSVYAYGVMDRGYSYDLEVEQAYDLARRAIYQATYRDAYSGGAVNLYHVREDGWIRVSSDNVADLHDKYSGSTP
Procedure: 25 μl of a reaction buffer containing 400 μM of the fluorogenic substrate Suc-Leu-Leu-Val-Tyr-AMC (Bachem) are dispensed per well of a white microtiter plate. Test compounds dissolved in 0.5 μl DMSO are added. To start the reaction; 25 μl of reaction buffer containing 35 ng of enzyme (20S Proteasome, Rabbit, Calbiochem) are added. The increase in fluorescence (excitation at 360 nm; emission at 440 nm) is measured over 30 min at 30° C. at 30″. The IC50's are then determined from the slopes.

mdx mouse = mdx mouse model for Duchenne Muscular Dystrophy, longterm treatment; type: in vivo; conditions: mdx mice, 4 weeks; for adverse effects upon longterm treatment: 20 mg/kg every 2nd day
Procedure: The mdx mouse is a well established animal model for Duchenne Muscular Dystrophy (Bulfield G., Siller W. G., Wight P. A., Moore K. J., X chromosome-linked muscular dystrophy (mdx) in the mouse, Proc. Natl. Acad. Sci. USA., 1984, 81(4), 1189-1192). Selected compounds were tested in longterm treatments of mdx mice, according to the procedures described below.
Mouse strains: C57BL/10scsn and C57BL/10scsn mdx mouse strains were purchased at The Jackson Laboratory (ME, USA) and bred inhouse. Mouse males were sacrificed at the age of 3 or 7 weeks by CO2 asphyxiation.
Treatment: Compounds were dissolved in 50% PEG, 50% saline solution and applied by i.p. injection.
Histology: Tibialis anterior (TA), quadriceps (Quad), and diaphragm (Dia) muscles were collected and mounted on cork supports using gum tragacanth (Sigma-Aldrich, Germany). The samples were snap-frozen in melting isopentane and stored at −80° C. 12 μm thick cryosections of the mid-belly region of muscles were prepared. For staining, sections were air dried and fixed with 4% PFA in PBS for 5 minutes, washed 3 times with PBS and incubated over night at 4° C. in PBS containing 2 μg/ml Alexa Fluor™ 488 conjugated wheat-germ agglutinin (WGA-Alexa, Molecular Probes, Eugen, Oreg., USA) to stain membrane-bound and extracellular epitopes and 1 μg/ml 4′,6-diamidino-2-phenylindole (DAPI; Molecular Probes) to stain nuclei.
Image acquisition and analysis: Fluorescence microscopy images of both labels were acquired using a digital camera (ColorView II, Soft Imaging System, Müinster, Germany) coupled to a fluorescence microscope (Vanox S, Olympus, Tokyo, Japan). Combination of these two stainings to a composite image, assembling of several images to a complete image of the entire muscle cross-section and further semi-automated analysis was performed using the image analysis program AnalySIS (Soft Imaging System). Image analysis of 1200-2900 muscle fibers in each section was performed in three steps: 1) determination of the muscle fiber boundaries, 2) determination of the muscle fiber size, and 3) determination of the percentage of muscle fibers containing centralized nuclei. Six different geometrical parameters were tested for the determination of the muscle fiber size: (a) the “minimal feret” (the minimum distance of parallel tangents at opposing borders of the muscle fiber), (b) the “area”, (c) the “minimal inner diameter” (the minimum diameter through the center of the muscle fiber), (d) the “minimal diameter” (the minimum diameter of a muscle fiber for angles in the range 0° through 179° with step width 1°, (e) the “minimal outer diameter” (the minimum diameter through the muscle fiber from outer border to outer border), and (f) the “perimeter”. The variance coefficient of the muscle fiber size is defined as follows: variance coefficient=(standard deviation of the muscle fiber size/mean of the muscle fiber size of the section)*[…]. For statistical analysis of different variance coefficient values Mann-Whitney U test was used.
Selected Examples of the present invention were active in the mdx mouse model at 20 mg/kg every 2nd day, using 3 week old mice and a treatment period of 4 weeks (N=5-10).

[2] = 20 mg/kg every 2nd day i.p., diaphragm, vs vehicle-treated mdx mice
[3] = 20 mg/kg every 2nd day i.p., tibialis anterior, vs vehicle-treated mdx mice

melting point [°C] | IC50 (20S Proteasome) [nM] | Compound | UTR Induction @50 nM [1] [%] | decrease in the variance coefficient of the muscle fiber size, Dia (mdx mouse; [2]) [%] | decrease in the variance coefficient of the muscle fiber size, TA (mdx mouse; [3]) [%] | reduction of the percentage of centralized nuclei, TA (mdx mouse; [3]) [%] | adverse effects upon longterm treatment (mdx mouse) | reduction of the percentage of centralized nuclei, Dia (mdx mouse; [2]) [%] | decrease in the variance coefficient of the muscle fiber size, Quad (mdx mouse; 20 mg/kg every 2nd day i.p., quadriceps, vs vehicle-treated mdx mice) [%]
238 to 241 | < 10 | CCNC(=O)C(=O)C(Cc1ccc(Cl)cc1)NC(=O)C(NC(=O)C(Cc1cccc2ccccc12)NC(=O)CCCCc1cccs1)C(C)C (stereo not shown) [Example 22] | 117 |  |  |  |  |  | 
 | 120 | CCNC(=O)C(=O)[C@H](Cc1ccc(Cl)cc1)NC(=O)[C@@H](NC(=O)[C@H](Cc1ccccc1)NC(=O)CCCCc1cccs1)C(C)C [Example 1] |  | 26 | 26 | 17 | No prominent adverse effects |  | 
238 to 240 | 23 | CCNC(=O)C(=O)C(Cc1ccc(OC)cc1)NC(=O)C(NC(=O)C(CCc1ccccc1)NC(=O)CCc1cccs1)C(C)C (stereo not shown) [Example 520] | 134 | 40 |  | 13 | No prominent adverse effects | 26 | 31
